Series [1] deals with hydantoinase (obtained from Sigma). Nature of the series: Hydantoinase catalysed hydrolysis of racemic 6-PDHU and reverse cyclisation, chiral reverse-phase HPLC. It counts as biochemical, Vigna angularis. To be noted: for cyclisation of N-carbamoyl-β-phenylalanine (reverse reaction): with hydantoinase. The protocol: Unless otherwise stated all experiments were carried out on a 5 mM scale of 6-PDHU (4.75 mg) in 5 mL tris buffer (0.1 M pH 7.5) with 1U of commercially available hydantoinase from Vigna angularis (35 mg, obtained from Sigma, St. Louis, USA) in 15 mL Falcon tubes, incubated in a thermomixer (Falcon) at 750 rpm and a temperature of 50° C.
For chiral rpHPLC the following column, buffer and running conditions were used: • Astec Chirobiotic™ T 25 cm×4.6 mm, 5 μm (Sigma-Aldrich, St. Louis, USA) Ammonium Acetate buffer (pH 5.5):Methanol, 70:30, 25° C., 0.5 mL/min
Initially the hydantoinase (obtained form Sigma, St. Louis, USA) catalysed hydrolysis of (±)-6-PDHU (racemic 6-phenyldihydrouracil) (4a in FIG. 2: R=Ph) was studied as a model system. Reactions were carried out at a substrate concentration of 5 mM in Tris buffer [pH 7.5] and monitored by reverse-phase chiral HPLC as described in Example 7, which allowed simultaneous determination of both the extent of conversion in the reaction and also the enantiomeric excess of unreacted dihydrouracil 4a and the N-carbamoyl derivative 5 (FIG. 4, cf. also Scheme 2). […] All reactions gave an equilibrium concentration of 6-PDHU:(S)-NCBPA=51:49. The enantiomeric excess of (S)-NCBPA exceeded 96% during the whole observation period.

The subject of another series is D-hydantoinase (Sigma). The experiment in a line: Substrate specificity of Vigna angularis hydantoinase. It counts as biochemical. To be noted: Tris buffer pH 7.5, 0.1 M; D-hydantoinase 7 g/L; substrate 5 mM. The protocol:
Various substrates were synthesized as described in Example 4 and subjected to hydantoinase catalyzed conversion [Tris buffer (pH 7.5, 0.1 M, 1.0 mL), D-hydantoinase, (Sigma, 7 g/L), substrate (5 mM solutions predissolved in buffer unless aromatic substituent (4a, 4b, 4c), in which case substrate is dissolved in 100 microlitres DMSO and added to 900 microlitres of buffer)]. The reaction is shown in FIG. 10, the results are shown in Table 4, wherein the E-value is defined as follows: E value=(ln(1−[product](1+ee)))/(ln(1−[product]*(1−ee)))

The subject of series [2] is hydantoinase obtained from Sigma. Nature of the series: Specific activity of commercially available hydantoinase (Sigma) towards substrates, HPLC. To be noted: Enzyme from Sigma; 5 mM substrate, 50 mM Tris HCl pH 7.5, 30 min, 40° C. It counts as biochemical, Vigna angularis. How it is done: (§1) To determine and compare the specific activity of the Sigma enzyme and the purified hydantoinase (BP) 5 mM of hydantoin, 5-phenylhydantoin or 6-phenyldihydrouracil, respectively, in 50 mM Tris HCl pH 7.5 were incubated with different amounts of enzyme for 30 min at 40° C. The reaction was stopped by adding conc. HCl and then measured by HPLC.

In series [3] the test system is hydantoinase isolated in Example 2. The experiment in a line: Specific activity of the hydantoinase isolated in Example 2 towards substrates, HPLC. It counts as biochemical, Vigna angularis. As to conditions: Enzyme from Example 2; 5 mM substrate, 50 mM Tris HCl pH 7.5, 30 min, 40° C. How it is done:
as §1

A short description of series [4]: pH dependency of chemical hydrolysis of 6-PDHU in Tris buffer without enzyme. It counts as physicochemical. As to conditions: 24 hours, no enzyme. How it is done: 6-PDHU was incubated at 50° C. for 24 hours in Tris buffer at different pH values. Appreciable background hydrolysis of 6-PDHU occurred with a strong pH and buffer dependency. In Tris buffer at pH 7, a background hydrolysis of 0.5% was observed. At pH 9, the background hydrolysis amounted to ca. 20% (FIG. 7).

The subject of series [5] is D-hydantoinase from Sigma. Nature of the series: pH/buffer dependency of hydantoinase conversion of 6-PDHU. It counts as biochemical, Vigna angularis. As to conditions: 22 hours. The protocol:
6-PDHU was incubated in phosphate buffer (0.1 M, potassium dihydrogen phosphate and dipotassium hydrogen phosphate, volumes adjusted to the appropriate pH) or Tris buffer at various pH values for (up to 8h, using 7 g/L D-hydantoinase from Sigma). […] In an additional experiment conversion rates were determined for phosphate or Tris buffers at various pH values over time. 5 mM 6-PHDU was incubated in phosphate buffer (pH 6.0, 7.0, 7.5, 8.0) and Tris buffer (pH 7.5) buffers for 22 hours. The results are shown in FIG. 9 (wherein diamonds, squares, triangles and crosses represent phosphate buffer at pH 6, pH 7, pH 7.5 or pH 8, respectively, and dots represents Tris buffer at pH 7.5) and Table 3 (ee=enantiomeric excess [%]).

In series [6] the test system is Pseudomonas putida IFO 12996. To be noted: hydrolysis using Pseudomonas putida IFO 12996, JP06261787; cited from earlier work.

Each structure is given as a SMILES string.

Regarding `NC(=O)N[C@H](CC(=O)O)c1ccccc1` [(R)-NCBPA, (R)—N-carbamoyl-β-phenylalanine], in series [1], the “cyclisation of N-carbamoyl-β-phenylalanine (reverse reaction)” value is reported as “no appreciable cyclisation”.

As for `O=C1CC(c2ccc(F)cc2)NC(=O)N1` (stereo not shown) [Substrate 4b, 6-(4-fluoro-phenyl)-dihydrouracil], in the series on D-hydantoinase (Sigma), the E value is given as above 100 and the “Relative rate of enzymatic hydrolysis” value is 15.

Consider `O=C1CC(c2ccccc2)NC(=O)N1` (racemic) [Substrate 4a, (±)-6-phenyldihydrouracil], for which the specific activity was found to be 6 in series [2] and 72 in series [3]. Moreover, the E value is above 100 in series [1] (selective for the (S)-enantiomer, 5 mM substrate, Tris buffer pH 7.5) and above 200 in the series on D-hydantoinase (Sigma). The background hydrolysis in series [4] (Tris buffer pH 7, 50° C.) is 0.5%; in series [4] (Tris buffer pH 9, 50° C.), “ca. 20%”. Further, the “ee (enantiomeric excess)” value in series [5] (Phosphate buffer pH 6.00, 5 mM) is given as above 99.90%; in series [5] (Phosphate buffer pH 7.00, 5 mM), above 99.90%; in series [5] (Phosphate buffer pH 7.50, 5 mM), 96.62%; in series [5] (Phosphate buffer pH 8.00, 5 mM), 92.73%; in series [5] (Tris buffer pH 7.50, 5 mM), above 99.90%. In addition, in the series with D-hydantoinase (Sigma), the “Relative rate of enzymatic hydrolysis” value is 7. In series [6], the enantiomeric excess result was “up to 51%”.

Consider `O=C1NC(=O)C(c2ccccc2)N1` (stereo not shown) [5-Phenylhydantoin, 5-phenylhydantoin], for which the specific activity in series [2] was found to be 261; in series [3], 557.

As for `O=C1CNC(=O)N1` [Hydantoin, hydantoin], the results for the specific activity in series [2] and in series [3] were 217 and 425, respectively.

Take `NC(=O)N[C@@H](CC(=O)O)c1ccccc1` [(S)-NCBPA, (S)-N-carbamoyl-β-pheynylalanine]: in series [1] (during the whole observation period), the “enantiomeric excess of (S)-NCBPA” value is “exceeded 96%”.

For the compound `NC(=O)NC(CC(=O)O)c1ccccc1` (racemic) [N-carbamoyl-β-phenylalanine, (±)—N-carbamoyl-β-phenylalanine], in series [1], the “cyclisation of N-carbamoyl-β-phenylalanine (reverse reaction)” value was “highly (S)-selective”.

As to `O=C1CC(c2ccc(Cl)cc2)NC(=O)N1` (stereo not shown) [Substrate 4c, 6-(4-chloro-phenyl)-dihydrouracil], in the series with D-hydantoinase (Sigma), the E value is given as above 100 and the “Relative rate of enzymatic hydrolysis” value turned out to be 41.

With `CC1CC(=O)NC(=O)N1` (stereo not shown) [Substrate 4h, 6-methyldihydrouracil], in the series on D-hydantoinase (Sigma), the E value was 5 and the “Relative rate of enzymatic hydrolysis” value was 52.

For `O=C1CCNC(=O)N1` [Substrate 4e, dihydrouracil], the “Relative rate of enzymatic hydrolysis” value in the series on D-hydantoinase (Sigma) stood at 100.

As to `CC1CNC(=O)NC1=O` (stereo not shown) [Substrate 8, 5-methyldihydrouracil], in the series with D-hydantoinase (Sigma), the “Relative rate of enzymatic hydrolysis” value is reported as 23.

(Values after patent publication US9096841B2, “Preparation of beta-amino acids” (BASF SE, priority 2009, dated 2015).)
